Values quoted from earlier work, collected in patent US20070071683A1, “Ultrasonic concentration of carrier particles” (The Regents of the University of California, priority 2005, published 2007).

System: tumor
Conditions: paclitaxel alone

CC(=O)O[C@H]1C(=O)[C@@]2(C)[C@H]([C@H](OC(=O)c3ccccc3)[C@]3(O)C[C@H](OC(=O)[C@H](O)[C@@H](NC(=O)c4ccccc4)c4ccccc4)C(C)=C1C3(C)C)[C@]1(OC(C)=O)CO[C@@H]1C[C@@H]2O [paclitaxel]
effect on tumor volume: did not affect tumor volume
